The nature of data set [1]: Relaxivity measurements at 1.41 T in water and human plasma. It counts as physicochemical. The conditions noted are these: 37 °C, normalized to Gd. As for the experimental part: Relaxivity measurements at 1.41 T were performed using a MiniSpec mq60 spectrometer (Bruker Analytik, Karlsruhe, Germany) operating at a resonance frequency of 60 MHz and a temperature of 37 °C. The T1 relaxation times were determined using the standard inversion recovery (IR) method with a fixed relaxation delay of at least 5×T1. The variable inversion time (TI) was calculated automatically by the standard software of the MiniSpec mq60 (8 steps). The T2 measurements were performed by using a Carr-Purcell-Meiboom-Gill (CPMG) pulse sequence, applying a relaxation delay of at least 5×T1.
Each relaxivity measurement was performed using three different Gd concentrations (3 concentrations between 0.05 and 2 mM). The T1 and T2 relaxation times of the example compounds 1 to 10 were measured in different media for example in water and human plasma. Human plasma preparation: For each experiment fresh blood was taken from a volunteer using 10 mL citrate-tubes (Sarstedt S-Monovette 02.1067.001, 10 mL, Citrate). The 10 mL citrate-tubes were carefully inverted 10 times to mix blood and anticoagulant and centrifuged for 15 min at 1811 g at RT (Eppendorf, Centrifuge 5810R).
The relaxivities ri (where i=1, 2) were calculated based on the measured relaxation rates R, in water and plasma:
where Ri(0) represent the relaxation rate of the respective solvent and CGd the concentration of the compound normalized to the Gadolinium. The Gadolinium concentrations of the investigated solutions were verified by Inductively Coupled Plasma Mass Spectrometry (ICP-MS Agilent 7500a, Waldbronn, Germany).

The target in a further data set is T1, OATP1B3 (Homo sapiens, UniProt Q9NPD5).
T1 construct: expressed in transfected cells
T1 sequence (Q9NPD5 1-702): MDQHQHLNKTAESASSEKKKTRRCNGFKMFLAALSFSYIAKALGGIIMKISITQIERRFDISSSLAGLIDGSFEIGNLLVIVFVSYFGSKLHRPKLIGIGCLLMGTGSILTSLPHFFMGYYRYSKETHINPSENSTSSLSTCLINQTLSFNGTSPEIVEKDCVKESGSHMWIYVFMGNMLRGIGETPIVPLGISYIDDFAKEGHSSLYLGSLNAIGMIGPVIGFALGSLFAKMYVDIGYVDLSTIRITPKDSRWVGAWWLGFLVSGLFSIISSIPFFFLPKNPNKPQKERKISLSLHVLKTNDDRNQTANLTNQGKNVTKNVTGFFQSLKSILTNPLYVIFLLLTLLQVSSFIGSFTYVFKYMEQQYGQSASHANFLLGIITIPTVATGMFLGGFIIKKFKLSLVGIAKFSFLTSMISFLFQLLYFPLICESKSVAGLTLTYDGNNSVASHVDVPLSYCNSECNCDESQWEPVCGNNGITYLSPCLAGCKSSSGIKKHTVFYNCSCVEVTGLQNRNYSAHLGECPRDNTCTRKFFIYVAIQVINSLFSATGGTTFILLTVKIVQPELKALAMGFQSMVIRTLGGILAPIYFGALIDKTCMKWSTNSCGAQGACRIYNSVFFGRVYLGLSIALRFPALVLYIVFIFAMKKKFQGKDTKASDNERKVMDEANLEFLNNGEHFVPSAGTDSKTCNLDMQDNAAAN
Nature of the data set: Uptake into stable transfected OATP1B3 HEK 293 cells. The class given is cell-based. Particulars: 100 μM, 40 min, relative to RC1 (Gd-EOB-DTPA). As for the experimental part:
Human transfected OATP1B3 human embryonic kidney 293 cells (OATP1B3 HEK 293, SLCO1B3, Entrez Gene ID: 28234) were used (Leonhardt M et al. Drug Metab Dispos. 2010 July; 38(7):1024-8). The following culture medium was used: 500 mL DMEM (Dulbecco's Modified Eagle Medium—high Glucose, D6429), 50 mL FCS (fetal bovine serum, Fa. Sigma, F7524), 5.8 mL G418 (Geneticin, Fa. Gibco 10131-027) and 5 mL Pen-Strep. (Penicillin-Streptomycin, Fa. Gibco, Ref 15140-122). Cryopreserved cells were shortly thawed in water bath and diluted in 10 mL warm culture medium (37 °C). After medium change the cells were grown for 3d in a 25 cm^2 cell culture flask. After 3 to 5d the cells were transferred into 75 cm^2 flasks. For the splitting of cells these were incubated with 1.5 mL trypsin (Trypsin-EDTA (1×) 0.05%, Ref 25300-054 100 ml, Fa. Gibco) for 3-5 min in the incubator (37 °C, 5% CO2 and 95% oxygen). After centrifugation and washing with medium the cells were counted (50 μL cell suspension and 50 μL trypan blue (Trypan Blue Solution, 93595-50 ml, Fa. Fluka). Cells were cultured (1×10^5 cells/well) in poly-D-lysine coated 24-well plates (Fa. Corning, Ref: 354414) in 1.5 mL medium per well. After 48 hours in the incubator the medium was changed and 1.5 mL/well sodium butyrate containing medium were added (40 mL culture medium plus 400 μL Na-Butyrate, Fa. Sigma Aldrich B5887-5G, 250 mg in 2.27 mL MilliQ water). After 24 hours in the incubator the medium was vacuumed off and 1.5 mL transport buffer was added and incubated for 10 min. The transport buffer contains the following ingredients: 500 mL HBSS (Hank's balanced salt solution, Hyclone, SH30268.01), 5 mL HEPES buffer (4-(2-hydroxyethyl)-1-piperazine-ethanesulfonic acid, Gibco 15630-056) and 3.9 mL glucose (Sigma, G8270-100, 90 g/200 mL MilliQ water). All test items were prepared in transport buffer at a final concentration of 100 μM from stock solutions (180 to 500 mM concentration). The OATP1B3 HEK 293 cells were incubated with test solutions (test item in transport buffer 500 μL) for 40 min on a thermoshaker without shaking (PHMP, Fa. Grant Bio). Triplicates were performed for each test item. After incubation the cells were washed with 2 mL of cold PBS (+) buffer (Dulbeccos PBS+, Fa. Gibco). […] As a reference standard Gd-EOB-DTPA (gadoxetate) is used in the same well plate. The OATP1B3 HEK 293 uptake of the test compound is calculated relative to gadoxetate (resulting in the unit % of RC1).

Data set [2] can be described thus: Partition coefficient (log P butanol/buffer). It counts as physicochemical. Particulars: 50 mM Tris-HCl, pH 7.4, 10 μM, room temperature. As for the experimental part: The partition coefficient P (log P=log(Cbutanol/Cbuffer)) was determined in buffered aqueous solution (10 μM of compound in 0.5 mL 50 mM Tris-HCl saturated with Butanol, pH 7.4) and 1-butanol 1+1 and the mixture was shaken for 2 h at room temperature (n=3). The Gd-concentrations in each phase. CObutano, and Cbuffer were measured by ICP-MS (The Chemistry of Contrast Agents in Medical Magnetic Resonance Imaging” 2nd Ed. Merbach A S, Helm L, Toth E, eds. Hoboken, NJ: Wiley 2013).

The Log P is the decadic logarithm of the partition coefficient of the neutral form, usually between octanol and water. Lower therefore signals a more hydrophilic compound. In data set [1], `CCOCCOCCOCCOc1ccc(C[C@H]2CN(CC(=O)[O-])CCN(CC(=O)[O-])CCN(CC(=O)O)CCN2CC(=O)[O-])cc1.[Gd+3]` [Example 5, Gadolinium-2,2′,2″-[(2S)-10-(carboxymethyl)-2-(4-{2-[2-(2-ethoxyethoxy)ethoxy]ethoxy}benzyl)-1,4,7,10-tetraazacyclododecane-1,4,7-triyl]triacetate] registered a r1 human plasma of 5.7 L/mmol/s and a r1 water of 5.1 L/mmol/s. In addition, at OATP1B3, the “Uptake into OATP1B3-HEK 293 cells” value is 100 % of RC1. The “Log P” value in data set [2] was −1.74.

Consider `CCOCCOc1ccc(C[C@H]2CN(CC(=O)[O-])CCN(CC(=O)[O-])CCN(CC(=O)O)CCN2CC(=O)[O-])cc1.[Gd+3]` [Example 4, Gadolinium-2,2′,2″-{(2S)-10-(carboxymethyl)-2-[4-(2-ethoxyethoxy)benzyl]-1,4,7,10-tetraazacyclododecane-1,4,7-triyl}triacetate], for which, in data set [1], the r1 human plasma turned out to be 6.6 L/mmol/s and the r1 water is 4.8 L/mmol/s. Moreover, on OATP1B3, the “Uptake into OATP1B3-HEK 293 cells” value was 103 % of RC1. For the same molecule, the “Log P” value in data set [2] is −1.57.

In data set [1], `COCCOCCOCCOc1ccc(C[C@H]2CN(CC(=O)[O-])CCN(CC(=O)[O-])CCN(CC(=O)O)CCN2CC(=O)[O-])cc1.[Gd+3]` [Example 1, Gadolinium-2,2′,2″-[(2S)-10-(carboxymethyl)-2-(4-{2-[2-(2-methoxyethoxy)-ethoxy]ethoxy}benzyl)-1,4,7,10-tetraazacyclododecane-1,4,7-triyl]triacetate] came in with a r1 human plasma of 6.6 L/mmol/s and a r1 water of 5.1 L/mmol/s. For the same molecule, the “Uptake into OATP1B3-HEK 293 cells” value on OATP1B3 is recorded as 79 % of RC1. Moreover, in data set [2], the “Log P” value is recorded as −2.12.

In data set [1], `CCCCOc1ccc(C[C@H]2CN(CC(=O)[O-])CCN(CC(=O)[O-])CCN(CC(=O)O)CCN2CC(=O)[O-])cc1.[Gd+3]` (single isomer, unassigned; stereoisomer 2) [Example 13] yielded a r1 human plasma of 9.8 L/mmol/s and a r1 water of 5.3 L/mmol/s. For the same molecule, the “Uptake into OATP1B3-HEK 293 cells” value at OATP1B3 is on record as 383 % of RC1.

As to `CCOc1ccc(C[C@H]2CN(CC(=O)[O-])CCN(CC(=O)[O-])CCN(CC(=O)O)CCN2CC(=O)[O-])cc1.[Gd+3]` (single isomer, unassigned; stereoisomer 1) [Example 10], in data set [1], the r1 human plasma was determined as 6.4 L/mmol/s and the r1 water was determined as 4.8 L/mmol/s. Moreover, the “Uptake into OATP1B3-HEK 293 cells” value on OATP1B3 was 80 % of RC1. Also, the “Log P” value in data set [2] is −1.34.

Take `CCOCCOCCOc1ccc(C[C@H]2CN(CC(=O)[O-])CCN(CC(=O)[O-])CCN(CC(=O)O)CCN2CC(=O)[O-])cc1.[Gd+3]` [Example 2, Gadolinium-2,2′,2″-[(2S)-10-(carboxymethyl)-2-{4-[2-(2-ethoxyethoxy)ethoxy]benzyl}-1,4,7,10-tetraazacyclododecane-1,4,7-triyl]triacetate]: in data set [1], the r1 human plasma worked out at 5.9 L/mmol/s and the r1 water turned out to be 4.9 L/mmol/s. For the same molecule, the “Uptake into OATP1B3-HEK 293 cells” value on OATP1B3 is 121 % of RC1. In addition, the “Log P” value in data set [2] is given as −1.52.

Take `CCCCOc1ccc(C[C@H]2CN(CC(=O)[O-])CCN(CC(=O)[O-])CCN(CC(=O)O)CCN2CC(=O)[O-])cc1.[Gd+3]` (single isomer, unassigned; stereoisomer 1) [Example 12]: in data set [1], the r1 human plasma is 8.8 L/mmol/s and the r1 water was determined as 4.7 L/mmol/s. Further, at OATP1B3, the “Uptake into OATP1B3-HEK 293 cells” value is on record as 66 % of RC1. The “Log P” value in data set [2] was −0.45.

Take `CCOc1ccc(CC2CN(CC(=O)[O-])CCN(CC(=O)[O-])CCN(CC(=O)O)CCN2CC(=O)[O-])cc1.[Gd+3]` (single isomer, unassigned; diastereomer 2) [Example 9, Gadolinium-2,2′,2″-[10-(carboxymethyl)-2-(4-ethoxybenzyl)-1,4,7,10-tetraazacyclododecane-1,4,7-triyl]triacetate (racemic diastereomer 2)]: in data set [1], the r1 human plasma was 5.6 L/mmol/s and the r1 water is 4.3 L/mmol/s. Besides, the “Uptake into OATP1B3-HEK 293 cells” value on OATP1B3 is 13 % of RC1. For the same molecule, the “Log P” value in data set [2] is reported as −1.36.

In data set [1], `CCOc1ccc(CC2CN(CC(=O)[O-])CCN(CC(=O)[O-])CCN(CC(=O)O)CCN2CC(=O)[O-])cc1.[Gd+3]` (stereo not drawn) [Example 7, Gadolinium-2,2′,2″-[10-(carboxymethyl)-2-(4-ethoxybenzyl)-1,4,7,10-tetraazacyclododecane-1,4,7-triyl]triacetate] gave a r1 human plasma of 6.2 L/mmol/s and a r1 water of 4.5 L/mmol/s. Moreover, the “Uptake into OATP1B3-HEK 293 cells” value on OATP1B3 is given as 36 % of RC1. Besides, in data set [2], the “Log P” value is on record as −1.32.

In data set [1], `CCOc1ccc(CC2CN(CC(=O)[O-])CCN(CC(=O)[O-])CCN(CC(=O)O)CCN2CC(=O)[O-])cc1.[Gd+3]` (single isomer, unassigned; diastereomer 1) [Example 8, Gadolinium-2,2′,2″-[10-(carboxymethyl)-2-(4-ethoxybenzyl)-1,4,7,10-tetraazacyclododecane-1,4,7-triyl]triacetate (racemic diastereomer 1)] gave a r1 human plasma of 6.5 L/mmol/s and a r1 water of 4.7 L/mmol/s. In addition, the “Uptake into OATP1B3-HEK 293 cells” value on OATP1B3 is reported as 94 % of RC1. Further, the “Log P” value in data set [2] was −1.33.

The values above are taken from patent US20260365677A1, “NEW CONTRAST AGENTS FOR USE IN DIAGNOSTIC IMAGING” (Bayer Aktiengesellschaft, priority 2022, published 2026).
